Data on three compounds can be found in the NIST ThermoML archive (doi:10.1016/j.fluid.2017.04.001).

± gives the expanded uncertainty stated by the source.

A short description of this data set: wn = mass fraction of the nth substance listed. The following applies: 308.2 K, 101 kPa, Liquid, Cone and plate viscometry.

With `C[N+](C)(C)CCO.O=C([O-])[C@@H]1CCCN1` [2-hydroxy-N,N,N-trimethylethanaminium L-prolinate] + O, the viscosity – broadly, the resistance of a fluid to flow – amounted to 0.89 ± 0.02 mPa·s (w1 = 0.05), 1.06 ± 0.03 mPa·s (w1 = 0.1), 1.49 ± 0.06 mPa·s (w1 = 0.2) and 2.2 ± 0.11 mPa·s (w1 = 0.3).

Consider `C[N+](C)(C)CCO.NCC(=O)[O-]` [2-hydroxy-N,N,N-trimethylethanaminium glycinate] + O, for which the viscosity runs as follows: (w1 = 0.05) 0.85 ± 0.02 mPa·s; (w1 = 0.1) 0.96 ± 0.03 mPa·s; (w1 = 0.2) 1.24 ± 0.04 mPa·s; (w1 = 0.3) 1.7 ± 0.07 mPa·s.

`C[C@H](N)C(=O)[O-].C[N+](C)(C)CCO` [2-hydroxy-N,N,N-trimethylethanaminium L-alaninate] + O: the viscosity is, setting by setting: (w1 = 0.05) 0.87 ± 0.02 mPa·s; (w1 = 0.1) 0.98 ± 0.03 mPa·s; (w1 = 0.2) 1.32 ± 0.05 mPa·s; (w1 = 0.3) 1.92 ± 0.09 mPa·s.
